From US12559471B2, “1,5-dihydro-2,4-benzodiazepine-3-one derivative and application thereof” (JIANGSU NHWA PHARMACEUTICAL CO., LTD, priority 2020, dated 2026)
Like-named read-outs stand apart in the source and are kept apart here.

Legend:
5-HT2C receptor = 5-HT2C receptor (Rattus norvegicus (Rat), UniProt P08909)
Description: 2) Preparation of 5-HT2C Membrane
The rat cortex was taken out of a refrigerator at −80° C. and thawed spontaneously. The solution A was added, and the mixture was homogenized for 3-4 s at 4th gear for a total of 4 times and centrifuged at 50000 g for 25 min at 4° C. The supernatant was discarded, and the solution A was added into the precipitate. The mixture was mixed well using a vortex mixer and centrifuged at 50000 g for 25 min at 4° C. (repeated twice). The supernatant was discarded after the centrifugation, and the precipitate was stored at −80° C. for later use.
2) Competitive 5-HT2C Receptor Binding Assay
Step 1: the prepared membrane was suspended in the homogenate B to obtain a 210 mg/mL membrane suspension for later use.
Step 2: 100 μL of the membrane suspension was added into each reaction tube.
Step 3: 100 μL of the solution B was added into a total binding tube (TB), 100 μL of Ketanserin (final concentration: 1.0×10^−5 M) was added into a non-specific binding tube (NB), and 100 μL of test compound was added into each compound binding tube (CB).
Step 4: 10 μL of radioligand ^3H-Mesulergine was added into each reaction tube to reach a final concentration of 3 nM.
Step 5: each reaction tube was incubated at 37° C. for 25 min. After the reaction was completed, the binding ligands were rapidly filtered under reduced pressure, wherein the Whatman test paper GF/C was washed with 0.5% PEI solution 1 h in advance. The filter membrane was fully washed with cold Tris buffer solution, taken out and put into a 4 mL scintillation disc, which was then added with 1 mL toluene scintillation solution and shaken for mixing well.
Step 6: the scintillation disc was put into a liquid scintillation counter for counting.

5-HT2A receptor = 5-HT2A receptor (Homo sapiens (Human), UniProt P28223); assay: Competitive 5-HT2A receptor binding assay (3H-Ketanserin, CHO-5-HT2A membrane); conditions: for 2C/2A: ratio of 5-HT2C Ki to 5-HT2A Ki
Description: 1) Preparation of CHO-5-HT2A Receptor Membrane
The precipitate was collected, and the supernatant was discarded. The solution B was added into the precipitate. […] The supernatant was carefully discarded, and the solution B was added into the precipitate again. […] The precipitate obtained was stored at −80° C.
1) Competitive 5-HT2A Receptor Binding Assay
Step 2: 100 μL of the membrane preparation was added into each reaction tube.
After the filtration, the filter membrane was dried at 60° C. and added into a scintillation disc attached with a bottom membrane, which was then added with 40 μL of scintillation liquid, sealed with a top membrane, and left to stand.

[1] = test system: DOI-induced head shaking behavior of mice; assay: DOI-induced head shaking (head thrust) test in mice; format: in vivo; conditions: Mus musculus, intragastric, DOI 1 mg/kg i.p., 0-20 min, read-out: ED50 for inhibiting the DOI-induced head shaking behavior
Description: 1. Head Thrust Test in Mice
Mice were stratified according to body weight and then randomly divided into a model control group, a blank control group and drug administration groups. 1 h after the intragastric administration of a vehicle or a drug, the animals were placed in a beaker (with the diameter of 13 cm and the height of 19 cm) paved with fresh padding, and were injected with a modeling drug DOI ((±)-1-(2,5-dimethoxy-4-iodophenyl)-2-aminopropane hydrochloride or (±)-2,5-dimethoxy-4-iodoamphetamine hydrochloride) intraperitoneally at a dose of 1 mg/kg. The head shaking times of the mice during the 0-20 min after the intraperitoneal injection of DOI were recorded. The head shaking behavior is defined as a rapid rotational twitching or wet dog-like shaking of the mouse head, which is distinguished from normal grooming or exploring behavior.

[2] = test system: MK-801-induced high activity behavior of mice; assay: Dizocilpine (MK-801)-induced high activity test in mice; format: in vivo; conditions: Mus musculus, 1 h, intragastric, MK-801 0.3 mg/kg i.p., 60 min, read-out: ED50 for inhibiting the MK-801-induced high activity behavior
Description: 2. Dizocilpine (MK-801)-Induced High Activity Test in Mice 2.1 Test Method
Mice were stratified according to body weight and then randomly divided into a model control group, a blank control group and drug administration groups. After the administration of a test substance (or a control substance), the mice were placed into an autonomous activity test box (a black polyethylene box with the specification of 29 cm×29 cm×30 cm) for adaptation, and injected with MK-801 at 0.3 mg/kg intraperitoneally 1 h after the intragastric administration. The mice were then placed into the autonomous activity test box for video recording for 60 min. Video analysis was performed after the video recording to evaluate the activity of the mice.

[3] = CHO-5-HT2A membrane, 3H-Ketanserin, read-out: 5-HT2A (Ki value)
[4] = read-out: 5-HT2C (Ki value), rat cortex membrane, 3H-Mesulergine

Sequence of 5-HT2C receptor (P08909 33-460): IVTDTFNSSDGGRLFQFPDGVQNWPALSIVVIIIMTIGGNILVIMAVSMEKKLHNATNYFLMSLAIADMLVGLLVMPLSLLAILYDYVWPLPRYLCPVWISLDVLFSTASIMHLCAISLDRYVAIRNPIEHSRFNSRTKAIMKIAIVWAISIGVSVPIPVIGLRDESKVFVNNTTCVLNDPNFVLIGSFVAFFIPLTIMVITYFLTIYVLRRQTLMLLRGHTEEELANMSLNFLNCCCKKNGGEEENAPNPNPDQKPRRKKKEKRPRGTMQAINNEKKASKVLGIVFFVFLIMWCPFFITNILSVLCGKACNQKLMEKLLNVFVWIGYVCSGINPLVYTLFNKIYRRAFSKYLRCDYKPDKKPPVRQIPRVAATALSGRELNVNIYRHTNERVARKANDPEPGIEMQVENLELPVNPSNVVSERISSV
Sequence of 5-HT2A receptor (P28223 whole entry): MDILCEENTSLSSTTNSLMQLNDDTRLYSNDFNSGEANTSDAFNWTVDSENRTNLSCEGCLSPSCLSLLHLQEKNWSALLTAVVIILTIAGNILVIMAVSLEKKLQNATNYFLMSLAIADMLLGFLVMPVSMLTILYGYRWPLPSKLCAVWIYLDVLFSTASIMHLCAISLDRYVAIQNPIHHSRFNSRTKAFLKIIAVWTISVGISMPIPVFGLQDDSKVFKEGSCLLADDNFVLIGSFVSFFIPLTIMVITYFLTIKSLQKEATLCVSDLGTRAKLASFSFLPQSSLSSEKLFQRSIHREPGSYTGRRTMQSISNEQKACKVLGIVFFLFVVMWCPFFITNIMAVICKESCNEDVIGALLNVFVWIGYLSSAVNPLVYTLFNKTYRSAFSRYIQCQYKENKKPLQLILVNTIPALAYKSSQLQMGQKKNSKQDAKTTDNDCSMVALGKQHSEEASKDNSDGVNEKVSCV

SMILES | Ki (5-HT2A receptor; [3]) | 2C/2A (5-HT2A receptor) | Ki (5-HT2C receptor; [4]) | also measured
CC(C)COc1ccc(CN2Cc3ccc(F)cc3CN([C@H]3CCN(C)C[C@H]3F)C2=O)cc1 [NH-K-A19014-0, (3R,4S)-8-fluoro-2-(1-methyl-3-fluoropiperidin-4-yl)-4-[[4-(2-methylpropoxy)phenyl]methyl]-1,5-di hydro-2,4-benzodiazepine-3-one] | 4.19 nM | 0.049 |  | Ki (5-HT2C receptor): 0.2 nM
CC(C)Oc1ccc(CN2Cc3ccc(F)cc3CN(C3CCN(C)CC3)C2=O)cc1F [NH-K-A19012, 8-fluoro-2-(1-methylpiperidin-4-yl)-4-[[(3-fluoro-4-isopropoxy)phenyl]methyl]-1,5-dihydro-2,4-benzodiazepine-3-one] | 0.947 nM | 9.882 | 9.36 nM | ED50 [1]: 0.3 mg/kg; ED50 [2]: 3.73 mg/kg
CC(C)CNc1ccc(CN2Cc3ccc(F)cc3CN(C3CCN(C)CC3)C2=O)cc1 [NH-K-A19007, 8-fluoro-2-(1-methylpiperidin-4-yl)-4-[[4-(2-methylpropylamino)phenyl]methyl]-1,5-dihydro-2,4-benzodiazepine-3-one] | 2.72 nM | 10.040 | 27.3 nM | 
COc1ccc(CN2Cc3ccc(F)cc3CN(C3CCN(C)CC3)C2=O)cc1 [NH-K-A19009, 8-fluoro-2-(1-methylpiperidin-4-yl)-4-[(4-methoxyphenyl)methyl]-1,5-dihydro-2,4-benzodiazepine-3-one] | 2.99 nM | 0.679 | 2.03 nM | 
CN1CCC(N2Cc3cc(F)ccc3CN(Cc3ccc(CC(C)(C)O)cc3)C2=O)CC1 [NH-K-A19010, 7-fluoro-2-[[4-(2-hydroxy-2-methylpropyl)phenyl]methyl]-4-(1-methylpiperidin-4-yl)-1,5-dihydro-2,4-benzodiazepin-3-one] | 20.1 nM | 0.91 | 18.2 nM | 
CC(C)COc1ccc(CN2Cc3ccccc3CN(C3CCN(C)CC3)C2=O)cc1 [NH-K-A19020, 2-(1-methylpiperidin-4-yl)-4-[[4-(2-methylpropoxy)phenyl]methyl]-1,5-dihydro-2,4-benzodiazepine-3-one] | 1.74 nM |  |  | 
CC(C)COc1ccc(CN2Cc3cc(Cl)ccc3CN(C3CCN(C)CC3)C2=O)cc1 [NH-K-A190017, 7-chloro-2-(1-methylpiperidin-4-yl)-4-[[4-(2-methylpropoxy)phenyl]methyl]-1,5-dihydro-2,4-benzo diazepine-3-one] | 1.63 nM | 298.694 | 486 nM | 
CC(C)Cc1ccc(CN2Cc3ccc(F)cc3CN(C3CCN(C)CC3)C2=O)cc1 [NH-K-A19008, 8-fluoro-2-(1-methylpiperidin-4-yl)-4-[[4-(2-methylpropyl)phenyl]methyl]-1,5-dihydro-2,4-benzodiazepine-3-one] | 5.29 nM | 7.999 | 42.4 nM | 
CC(C)COc1ccc(CN2Cc3ccc(F)cc3CN(C3CCN(C)C3)C2=O)cc1 (stereo not drawn) [NH-K-A19015] |  |  |  | Ki (5-HT2C receptor): 0.41 nM; Ki (5-HT2A receptor): 1.69 nM
CC(C)COc1ccc(CN2Cc3ccc(F)cc3CN([C@H]3CCN(C)C[C@@H]3F)C2=O)cc1 [NH-K-A19014-0A, (3S,4S)-8-fluoro-2-(1-methyl-3-fluoropiperidin-4-yl)-4-[[4-(2-methylpropoxy)phenyl]methyl]-1,5-dihydro-2,4-benzodiazepine-3-one] | 0.002 nM | 16029.47 |  | Ki (5-HT2C receptor): 26.1 nM
CC(C)COc1ccc(CN2Cc3cc(F)c(F)cc3CN(C3CCN(C)CC3)C2=O)cc1 [NH-K-A20001, 7,8-difluoro-2-(4-isobutoxybenzyl)-4-(1-methylpiperidin-4-yl)-1,2,4,5-tetrahydro-3H-benzo[e][1,3]diazepin-3-one] | 5.98 nM |  |  | 
CC(C)Oc1ccc(CN2Cc3ccc(F)cc3CN(C3CCN(C)CC3)C2=O)c(F)c1 [NH-K-A19011, 8-fluoro-2-(1-methylpiperidin-4-yl)-4-[[(2-fluoro-4-isopropoxy)phenyl]methyl]-1,5-dihydro-2,4-benzodiazepine-3-one] | 12.7 nM |  |  | 
CC(C)Oc1ccc(CN2Cc3ccc(F)cc3CN(C3CCN(C)CC3)C2=O)cn1 [NH-K-A19013, 8-fluoro-2-(1-methylpiperidin-4-yl)-4-[[(6-isopropoxy)pyridin-3-yl]methyl]-1,5-dihydro-2,4-benzodiazepine-3-one] | 9.78 nM |  |  | 
CN1CCC(N2Cc3ccc(F)cc3CN(Cc3ccc(OC4CC4)cc3)C2=O)CC1 [NH-K-A19022, 4-[(4-cyclopropoxyphenyl)methyl]-7-fluoro-2-(1-methylpiperidin-4-yl)-1,5-dihydro-2,4-benzodiaze pine-3-one] | 0.15 nM | 8.76 | 1.33 nM | 
CC(C)COc1ccc(CN2Cc3ccc(F)cc3CC3(CCN(C)CC3)C2=O)cc1 [NH-K-A19019, 7-fluoro-1′-methyl-2-[[4-(2-methylpropoxy)phenyl]methyl]-1,2-dihydrospiro[benzo[c]azepine-4,4′-piperidine]-3(5H)-one] | 53.3 nM |  |  | 
